Measurements: paper PMC10497752, “Heparins are potent inhibitors of ectonucleotide pyrophosphatase/phospho-diesterase-1 (NPP1) – a promising target for the immunotherapy of cancer” (Frontiers in Immunology, 2023)

Key:
human NTPDase2 = target: T1, human NTPDase2 (Homo sapiens, UniProt Q9Y5L3); test: NTPDase CE-based assay, NTPDase2; assay type: biochemical; conditions: 20 µg/mL (12 µM); read-out: NTPDase2 inhibition, selectivity study
T1 construct: made in house; host or cells: COS-7 cells
T1 sequence (Q9Y5L3 1-495): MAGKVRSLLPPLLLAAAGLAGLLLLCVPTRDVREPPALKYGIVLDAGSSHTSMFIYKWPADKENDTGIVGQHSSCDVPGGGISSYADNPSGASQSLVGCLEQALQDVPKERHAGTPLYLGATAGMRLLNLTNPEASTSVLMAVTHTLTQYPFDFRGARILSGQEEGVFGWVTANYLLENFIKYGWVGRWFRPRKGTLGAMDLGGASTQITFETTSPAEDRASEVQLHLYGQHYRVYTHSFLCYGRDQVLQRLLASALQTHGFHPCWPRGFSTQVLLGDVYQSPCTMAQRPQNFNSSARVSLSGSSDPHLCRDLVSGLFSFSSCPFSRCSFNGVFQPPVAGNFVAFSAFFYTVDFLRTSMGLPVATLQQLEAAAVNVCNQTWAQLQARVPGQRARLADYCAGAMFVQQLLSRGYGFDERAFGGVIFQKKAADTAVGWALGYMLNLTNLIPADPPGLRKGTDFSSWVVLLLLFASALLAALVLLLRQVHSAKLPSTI
Method: For monitoring the activity of human NTPDases (subtypes 1, 2, 3 and 8) in the presence of test compounds, a CE-based assay system was used, according to a published procedure ([11], [25]). The following concentrations of test compounds were investigated in initial screening studies: 63 IU/mL of compounds 1 and 2, 30 µM of compound 6. For selectivity studies, the following concentration were employed: 50 IU/mL of 1, 12 µM of 6, and 48 µM of 7. The amount of enzyme was selected according to previously performed enzymatic titration, and adjusted to ensure a 10–20% conversion rate. Enzymes were obtained by transfection of COS-7 cells using plasmids encoding human NTPDase1 (GenBank accession number U87967) ([26]), NTPDase2 (NM_203468) ([27]), a kind gift of Dr. A.F. Knowles (San Diego, CA), NTPDase3 (AF034840) ([28]), a kind gift of Dr. T.L. Kirley (Cincinnati, OH) and human NTPDase8 (AY430414) ([29]) and purified as previously described ([30], [31]). The reaction buffer consisted of 10 mM HEPES, 2 mM CaCl2, and 1 mM MgCl2, pH 7.4. In the CE assay, the selected substrate concentration (ATP) was 100 µM for all studied human NTPDases (-1, -2, -3 and -8). […] The released products were separated by CE and quantified by their UV-absorption at 260 nm with ADP and AMP as external standards, as previously described ([11]); positive and negative controls were included.

[1] = tested on: ectonucleotidases expressed in U87 cell membrane preparations; test: Enzymatic assay on U87 cell membrane preparations (adenosine formation, CE); assay type: biochemical, human; conditions: 6 at 3 and 30 µM, 7 at 35 µM
Method: U87 glioblastoma cells were grown in cell culture dishes until reaching a fully covered confluent cell layer. Cells were cultivated at 37°C and 5% CO2 in DMEM with additions of 10% FCS, 1% penicillin/streptomycin (P/S) mixture and 1% L-glutamine. When confluent, the cell culture media was carefully removed and cells were frozen at -20°C overnight. The cells were then scraped off with a cell scraper using 2-3 mL of buffer (5 mM Tris, 2 mM EDTA, pH 7.4), homogenized and centrifuged for 10 min at 1000 g. The supernatant was collected and centrifuged for 60 min at 48000 g and 4°C. The pellet was then resuspended twice with Tris buffer, pH 7.4, followed by vortexing and centrifugation. The whole procedure was performed on ice. Finally, the pellet was resuspended and homogenized. A protein concentration of 1.5 mg/mL was determined with the Bradford method ([35]), and the protein was kept at -20°C until used. The enzymatic assay was performed by incubating the membrane preparation and the substrate at 37°C and 500 rpm for 30 min, followed by heat inactivation at 95°C for 5 min. For the determination of kinetic parameters, several substrate concentrations (from 6 to 500 µM of ATP or AMP) were utilized and incubated with 10 µg of membrane preparation for 30 min at 37°C, followed by heat inactivation. Capillary electrophoresis (CE) was used for analysis and quantification of the enzymatic product according to published procedures ([11], [36]). For the determination of the enzymatic activity 400 µM of ATP were employed, and three different amounts of membrane preparation (6, 10 and 30 µg of protein) were utilized. A positive control using the known NPP1 inhibitor PSB-POM-141 (20 µM) was performed ([19]). Data were obtained from three independent experiments each in duplicate measurements. […] Controls were run in parallel.

[2] = cited from earlier work

- inhibition at 12 µM (human NTPDase2): ~35%
SMILES: CO[C@H]1O[C@H](COS(=O)(=O)O)[C@@H](O[C@@H]2O[C@@H](C(=O)O)[C@@H](O[C@H]3O[C@H](COS(=O)(=O)O)[C@@H](O[C@@H]4O[C@H](C(=O)O)[C@@H](O[C@H]5O[C@H](COS(=O)(=O)O)[C@@H](O)[C@H](O)[C@H]5NS(=O)(=O)O)[C@H](O)[C@H]4O)[C@H](OS(=O)(=O)O)[C@H]3NS(=O)(=O)O)[C@H](O)[C@H]2OS(=O)(=O)O)[C@H](O)[C@H]1NS(=O)(=O)O [Compound 6, Fondaparinux]
- inhibition of the formation of adenosine from ATP [1]: inhibited the formation of adenosine in a dose-dependent manner
- half-life [2]: 17 h
